Assay results published in patent US20240245679A1, “AGENT FOR TREATING INFECTIOUS DISEASES AGAINST MUTANT VIRUSES OF NOVEL CORONAVIRUS” (FUJIFILM TOYAMA CHEMICAL CO., LTD., priority 2021, published 2024).

Tests used:
Experiment in all cases: microbe, parasite or virus in culture
Assay type in all cases: cell-based, SARS-COV-2
[1] = tested on: hCoV-19/Japan/TY2-312-P1/2020 (B.1.1 line)
[2] = tested on: hCoV-19/England/204820464/2020 (B.1.1.7 line); conditions: Severe acute respiratory syndrome coronavirus 2, Vero 76, read-out: EC90 value (90% effective concentration)
[3] = tested on: hCoV-19/Japan/TY11-330-P1/2021 (B.1.617.1 line); conditions: Severe acute respiratory syndrome coronavirus 2, VeroE6/TMPRSS2; 40 hours
[4] = tested on: hCoV-19/Japan/TY11-927-P1/2021 (B.1.617 line); conditions: Severe acute respiratory syndrome coronavirus 2, VeroE6/TMPRSS2; 40 hours
[5] = tested on: hCoV-19/Japan/QK002/2020 (B.1.1.7 line); conditions: Severe acute respiratory syndrome coronavirus 2, VeroE6/TMPRSS2; 40 hours
SARS-2 WA1/2020 = conditions: Severe acute respiratory syndrome coronavirus 2, Vero C1008; 72 hours
SARS-2 Omicron = conditions: Severe acute respiratory syndrome coronavirus 2, Vero C1008; 72 hours
[6] = tested on: hCoV-19/Japan/TY7-503/2021 (P.1 line); conditions: Severe acute respiratory syndrome coronavirus 2, Vero 76, read-out: EC90 value (90% effective concentration)
[7] = tested on: hCoV-19/Japan/TY7-501/2021 (P.1 line); conditions: Severe acute respiratory syndrome coronavirus 2, VeroE6/TMPRSS2; 40 hours
USA_WA1/2020 (A line) = conditions: Severe acute respiratory syndrome coronavirus 2, Vero 76, read-out: EC90 value (90% effective concentration)
[8] = tested on: hCoV-19/Japan/TY8-612/2021 (B.1.351 line); conditions: Severe acute respiratory syndrome coronavirus 2, VeroE6/TMPRSS2; 40 hours
SARS-2-9017 (delta) = conditions: Severe acute respiratory syndrome coronavirus 2, Vero C1008; 72 hours

## NC(=O)c1nc(F)cnc1O [Compound A, 6-fluoro-3-hydroxy-2-pyrazinecarboxamide]
[1]; 40 hours
  EC90: 466 µM
[1]; Severe acute respiratory syndrome coronavirus 2, VeroE6/TMPRSS2, 40 h
  EC90: 302 µM
[2]
  EC90: 83 µM
[3]
  EC90: 491 µM
[4]
  EC90: 294 µM
[5]
  EC90: 359 µM
SARS-2 WA1/2020
  EC90: 125 to 250 µM
SARS-2 Omicron
  EC90: 62.5 to 125 µM
[6]
  EC90: 190 µM
[7]
  EC90: 306 µM
USA_WA1/2020 (A line)
  EC90: 68 µM
[8]
  EC90: 223 µM
SARS-2-9017 (delta)
  EC90: 125 to 250 µM
